How the values were obtained:
[1] = target: ATP-dependent translocase ABCB1 (Homo sapiens, UniProt P08183); assay: TP_TRANSPORTER: transepithelial transport (basal to apical) in MDR1-expressing LLC-PK1 cells; assay type: functional, cell-based; conditions: pig
[2] = target: ATP-dependent translocase ABCB1 (Mus musculus, UniProt P21447); assay: TP_TRANSPORTER: transepithelial transport (basal to apical) in mdr1a-expressing LLC-PK1 cell; assay type: functional, cell-based; conditions: pig
[3] = target: P-glycoprotein 1 and 3 (MDR1a/MDR1b) (Mus musculus, UniProt P21447+P06795); assay: TP_TRANSPORTER: increase in brain concentration in mdr1a/1b(-/-) mouse; assay type: functional, organism-based; conditions: in vivo

Measured: Activity

ATP-dependent translocase ABCB1 (Mus musculus, UniProt P21447), sequence (P21447 whole entry): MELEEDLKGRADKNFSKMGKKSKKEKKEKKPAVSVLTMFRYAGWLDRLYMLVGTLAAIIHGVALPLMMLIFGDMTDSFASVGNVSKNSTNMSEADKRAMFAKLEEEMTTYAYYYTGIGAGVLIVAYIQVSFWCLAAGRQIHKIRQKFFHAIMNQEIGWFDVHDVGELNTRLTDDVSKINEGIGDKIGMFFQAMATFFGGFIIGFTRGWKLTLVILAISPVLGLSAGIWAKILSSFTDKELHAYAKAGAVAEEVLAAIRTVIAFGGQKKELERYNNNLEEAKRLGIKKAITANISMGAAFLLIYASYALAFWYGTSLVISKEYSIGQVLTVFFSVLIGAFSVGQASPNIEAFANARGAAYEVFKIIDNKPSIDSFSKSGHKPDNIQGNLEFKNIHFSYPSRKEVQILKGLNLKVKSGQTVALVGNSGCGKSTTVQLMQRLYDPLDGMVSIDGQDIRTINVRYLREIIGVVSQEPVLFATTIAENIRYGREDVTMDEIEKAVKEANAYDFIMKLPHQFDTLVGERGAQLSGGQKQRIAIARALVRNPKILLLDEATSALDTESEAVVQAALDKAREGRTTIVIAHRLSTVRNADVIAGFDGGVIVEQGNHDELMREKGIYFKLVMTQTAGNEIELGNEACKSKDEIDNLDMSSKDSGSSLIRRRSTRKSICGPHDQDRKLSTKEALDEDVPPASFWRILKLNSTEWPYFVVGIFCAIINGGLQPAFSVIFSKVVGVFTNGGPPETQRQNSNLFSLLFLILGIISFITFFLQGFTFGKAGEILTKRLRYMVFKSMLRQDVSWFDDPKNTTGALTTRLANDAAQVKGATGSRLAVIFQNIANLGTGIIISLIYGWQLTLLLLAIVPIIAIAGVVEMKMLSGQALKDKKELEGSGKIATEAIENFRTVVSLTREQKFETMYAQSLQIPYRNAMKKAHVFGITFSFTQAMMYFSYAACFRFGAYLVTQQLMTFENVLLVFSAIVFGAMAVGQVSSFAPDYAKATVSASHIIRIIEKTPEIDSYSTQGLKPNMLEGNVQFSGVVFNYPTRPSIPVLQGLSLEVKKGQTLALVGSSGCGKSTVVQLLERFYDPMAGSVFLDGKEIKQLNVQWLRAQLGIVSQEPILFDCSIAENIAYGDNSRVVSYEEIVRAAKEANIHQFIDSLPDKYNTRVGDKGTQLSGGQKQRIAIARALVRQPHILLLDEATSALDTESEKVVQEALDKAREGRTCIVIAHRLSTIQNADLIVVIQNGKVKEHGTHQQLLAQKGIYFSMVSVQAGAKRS
ATP-dependent translocase ABCB1 (Homo sapiens, UniProt P08183), sequence (P08183 whole entry): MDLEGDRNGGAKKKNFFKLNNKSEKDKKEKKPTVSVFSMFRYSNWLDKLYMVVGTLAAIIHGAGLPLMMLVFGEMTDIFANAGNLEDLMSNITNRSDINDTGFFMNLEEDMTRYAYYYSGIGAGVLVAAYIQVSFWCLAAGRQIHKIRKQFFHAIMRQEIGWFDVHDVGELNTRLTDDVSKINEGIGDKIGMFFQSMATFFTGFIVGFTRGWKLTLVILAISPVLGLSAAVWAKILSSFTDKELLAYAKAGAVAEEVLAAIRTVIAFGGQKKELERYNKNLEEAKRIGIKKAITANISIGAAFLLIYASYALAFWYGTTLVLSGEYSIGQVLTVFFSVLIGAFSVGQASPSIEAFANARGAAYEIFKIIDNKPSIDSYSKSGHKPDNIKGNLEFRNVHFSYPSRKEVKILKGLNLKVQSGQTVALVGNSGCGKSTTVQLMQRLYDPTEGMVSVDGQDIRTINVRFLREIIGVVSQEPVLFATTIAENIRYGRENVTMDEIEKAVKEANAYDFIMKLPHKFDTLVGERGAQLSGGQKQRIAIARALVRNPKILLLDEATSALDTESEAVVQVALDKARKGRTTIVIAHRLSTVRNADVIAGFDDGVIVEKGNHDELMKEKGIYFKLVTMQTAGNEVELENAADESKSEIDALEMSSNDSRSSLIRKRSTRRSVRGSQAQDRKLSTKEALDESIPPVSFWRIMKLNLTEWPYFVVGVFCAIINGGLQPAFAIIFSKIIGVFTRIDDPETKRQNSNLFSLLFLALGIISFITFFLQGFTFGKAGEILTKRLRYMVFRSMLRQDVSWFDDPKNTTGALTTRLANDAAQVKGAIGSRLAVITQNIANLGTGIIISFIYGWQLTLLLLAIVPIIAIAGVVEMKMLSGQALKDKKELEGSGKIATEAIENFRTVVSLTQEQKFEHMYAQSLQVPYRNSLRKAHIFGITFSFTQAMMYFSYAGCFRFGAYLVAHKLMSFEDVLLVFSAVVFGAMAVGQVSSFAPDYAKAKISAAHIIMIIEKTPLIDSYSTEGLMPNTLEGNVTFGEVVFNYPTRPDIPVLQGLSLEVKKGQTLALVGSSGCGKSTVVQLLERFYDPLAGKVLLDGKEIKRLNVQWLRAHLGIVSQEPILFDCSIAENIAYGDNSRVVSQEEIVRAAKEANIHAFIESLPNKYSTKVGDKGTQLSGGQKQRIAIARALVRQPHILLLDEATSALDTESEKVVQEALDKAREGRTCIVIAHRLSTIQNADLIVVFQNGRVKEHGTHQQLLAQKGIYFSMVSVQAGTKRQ

CN(C(=O)C(c1ccccc1)c1ccccc1)[C@H](CN1CC[C@H](O)C1)c1ccccc1 [ASIMADOLINE]
substrate [+]: all assays above
